Like-named read-outs stand apart in the source and are kept apart here. A value given as a limit tells only on which side of the number the result lay.

Usually CC50 stands for the concentration at which the toxic effect on the cells reaches its halfway point. The term EC50 denotes the concentration giving half of the maximal effect. As a reminder, the Cmax is the peak of the concentration-time curve.

In one data set the test system is Zluc cells. Put plainly: Cytotoxicity evaluation in Zluc cells (CellTiter-Blue). Format: cell-based, human. As to conditions: read-out: HCV Replicon CC50. Here is the method:
For cytotoxicity evaluation, Zluc cells were treated with compound as described herein, and cell viability was monitored using the CellTiter-Blue Cell Viability Assay (Promega) by adding 20 μL of the assay solution to each well. The plates were then incubated at 37° C./5% CO2 for at least 3 hours.
For orientation: The colour change of resazurin is a common sign of viable cells or microbes.

Data set [1] is described as follows: Plasma nucleoside and liver triphosphate PK after single oral dose (Example 4). As to conditions: at 1 μmol/kg; single oral dose 10 mg/kg in PEG 200. It counts as in vivo, CD-1 mice. Here is the method: Plasma samples were analyzed for nucleoside by LC-MS/MS. The internal standard (IS) was either 2′-MeG-D3 or tiapride. For protein precipitation and extraction, each plasma sample (50 μL) was treated with 500 μL of 0.2% formic acid in acetonitrile and 20 μL of the internal standard working solution. After vortexing and centrifugation, 500 μL of the sample extracts were transferred to a new plate, dried under N2 at ˜28° C. and reconstituted with 75 μL of 0.2% FA in water. The extracts were chromatographed on an Aquasil C18 column using a gradient system of 0.2% formic acid in water and acetonitrile. The analytes were detected and quantified by tandem mass spectrometry in positive ion mode on an MDS Sciex API5000 equipped with a Turbo Ionspray® interface. The calibration range was 0.500 (LLOQ) to 200 ng/mL in mouse plasma.
Internal standard solution was added to the homogenate followed by neutralization with 20% ammonium hydroxide solution and addition of 500 μL 1% formic acid. The tissue samples were extracted by weak anion exchange solid phase extraction (SPE). Post extraction, the eluates were evaporated under nitrogen, followed by reconstitution before injection onto the LC-MS/MS system.

The subject of another data set is HCV genotype 1b replicon. Put plainly: HCV replicon assay. It counts as cell-based. As to conditions: Zluc (Huh-7-derived) cells, luciferase reporter, 72 hours; read-out: HCV Replicon EC50. The protocol:
Huh-7-derived cell line (Zluc) that harbors an HCV genotype 1b replicon and a luciferase reporter gene was grown in Dulbecco's Modified Eagle Medium (DMEM) supplemented with 10% fetal bovine serum, 2 mM GlutaMAX, 1% MEM nonessential amino acids, 100 IU/mL penicillin, 100 μg/mL streptomycin, and 0.5 mg/mL Geneticin® (G418). For dose response testing the cells were seeded in 96-well plates at 7.5×10^3 cells per well in a volume of 50 μL, and incubated at 37° C./5% CO2. Drug solutions were made up freshly in Huh-7 media as 2× stocks. Ten additional 5-fold dilutions were prepared from these stocks in DMEM without G418. At least three hours after Zluc cells were seeded, drug treatment was initiated by adding 50 μL of drug dilutions to the plates in duplicate. Final concentrations of drug ranged from 100 μM to […]. Cells were then incubated at 37° C./5% CO2. Alternatively, compounds were tested at two concentrations (1 μM and 10 μM). […] For this, media was removed from the plates via gentle tapping. Fifty microliters of ONE-glo luciferase assay reagent was added to each well. The plates were shaken gently for 3 min at room temperature and luminescence was measured on a Victor^3 V 1420 multilabel counter (Perkin Elmer) with a 1 second read time using a 700 nm cut-off filter. The EC50 values were calculated from dose response curves from the resulting best-fit equations determined by Microsoft Excel and XLfit 4.1 software. When screening at two fixed concentrations, the results were expressed as % inhibition at 1 μM and 10 μM.
(Replicon systems follow genome replication, usually without infectious particles.)

The subject of the next data set is Huh-7 cells. Put plainly: Release of active metabolite in Huh-7 cells. It counts as in vitro ADME, human. As to conditions: Table 7. Here is the method: Huh-7 cells were plated in 1 mL culture medium (DMEM, containing glucose, L-glutamine and sodium pyruvate, 10% FBS, 100 IU/mL penicillin, 100 μg/mL streptomycin, 2 mM GlutaMAX, 1% MEM non-essential amino acids) at the concentration 0.8, 0.4 and 0.2 million cells per well on 6 well plates for 24, 48 and 72 hr treatment, respectively. Plated cells were incubated overnight at 37° C. in an incubator.
The following morning test compound was diluted to 20 μM from a stock solution in DMSO in fresh culture medium pre-warmed to 37° C. and 1 mL of the solution/well was added to cells. A final medium volume per well was 2.0 mL, test compound concentration in well was 10 μM and final DMSO concentration was 0.1%.
After 24, 48 or 72 hr, the medium was carefully removed and cell monolayers were washed twice with 2 mL ice-cold PBS per well. Following the last wash, all PBS was carefully removed and 1.0 mL of extraction solution (ice-cold 70% methanol) added. The plate was tightly covered with Parafilm, plastic plate cover and Parafilm again and an intracellular content was extracted at −20° C. for 24 hr.
After 24 hr the extracts were transferred into polypropylene microfuge tubes and dry on a refrigerated centrivap concentrator. Dry residues were reconstituted in 250 μL of HPLC-grade water and centrifuged at 16,000×g for 10 min. Aliquots (100 μL each) of the supernatants were transferred into a 96 well plate and internal standard (4 ng/mL final concentration) was added as the internal standard (IS) for LC-MS/MS analysis.

In the next data set the target is T1, cathepsin A (CatA) (Homo sapiens, UniProt P10619).
T1 sequence (P10619 29-326 limits assumed): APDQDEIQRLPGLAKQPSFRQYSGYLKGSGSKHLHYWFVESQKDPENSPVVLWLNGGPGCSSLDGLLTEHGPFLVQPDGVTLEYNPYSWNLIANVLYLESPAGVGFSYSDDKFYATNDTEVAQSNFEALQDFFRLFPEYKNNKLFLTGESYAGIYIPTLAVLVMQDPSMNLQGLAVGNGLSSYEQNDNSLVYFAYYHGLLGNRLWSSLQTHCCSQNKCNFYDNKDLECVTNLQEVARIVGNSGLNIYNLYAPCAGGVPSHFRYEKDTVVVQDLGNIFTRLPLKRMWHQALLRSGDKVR
T1 sequence (P10619 327-480 limits assumed): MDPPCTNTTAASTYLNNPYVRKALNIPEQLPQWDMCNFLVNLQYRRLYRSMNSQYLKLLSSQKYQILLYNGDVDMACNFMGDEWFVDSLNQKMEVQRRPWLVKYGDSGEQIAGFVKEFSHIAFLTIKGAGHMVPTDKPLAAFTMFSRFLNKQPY
Put plainly: Hydrolysis of prodrugs by Cathepsin A. It counts as in vitro ADME. Here is the method: CatA, cathepsin L (CatL) and CES1 were purchased from R & D Systems (Minneapolis, Minn.). Prior to the enzymatic hydrolysis reactions, CatA was activated according to the manufacturer's instruction. Briefly, CatA (0.05 μg/μL) was incubated with CatL (0.005 μg/μL) for 30 min at 37° C. in 25 mM MES pH 6.0 containing 5 mM DTT. The reaction was stopped by addition of the CatL specific inhibitor E64 (10 μM).
The CatA assay was performed at 37° C. The reaction mixture contained 25 mM MES buffer pH 6.0, 100 mM NaCl, 4 mM DTT and 100 μM of the compound. The reaction was started by addition of the activated CatA enzyme to a final concentration of 0.005 μg/μL. […] Reactions were stopped by mixing the sample with an equal volume of ice-cold methanol, and were loaded on a HPLC for analysis.

Data set [2] addresses T2, carboxylesterase 1 (CES1) (Homo sapiens, UniProt P23141).
T2 construct: purchased R & D Systems (Minneapolis, Minn.)
T2 sequence (P23141 18-567): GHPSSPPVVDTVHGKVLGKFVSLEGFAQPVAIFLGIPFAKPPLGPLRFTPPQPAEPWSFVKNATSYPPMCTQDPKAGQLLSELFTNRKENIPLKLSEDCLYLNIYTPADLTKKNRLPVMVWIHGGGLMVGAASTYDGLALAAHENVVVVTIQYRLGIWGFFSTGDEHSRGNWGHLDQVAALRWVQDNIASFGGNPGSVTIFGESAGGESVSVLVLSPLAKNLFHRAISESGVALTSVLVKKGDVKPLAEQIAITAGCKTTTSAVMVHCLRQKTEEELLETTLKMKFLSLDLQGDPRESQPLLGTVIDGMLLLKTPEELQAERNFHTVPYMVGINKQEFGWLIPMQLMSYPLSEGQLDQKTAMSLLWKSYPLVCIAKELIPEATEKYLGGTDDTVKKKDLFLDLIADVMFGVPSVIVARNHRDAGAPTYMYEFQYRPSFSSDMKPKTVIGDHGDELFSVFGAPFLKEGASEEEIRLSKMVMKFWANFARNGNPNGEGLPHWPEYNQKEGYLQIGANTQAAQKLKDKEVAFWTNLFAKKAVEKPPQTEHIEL
Put plainly: Hydrolysis of prodrugs by Carboxylesterase 1. Format: in vitro ADME. As to conditions: for CES1 hydrolysis: 100 μM compound, 37° C., pH 7.5.
Description: CES1 assay was performed at 37° C. in the reaction mixture containing 50 mM Tris/HCl buffer pH 7.5 and 100 μM of the compound. Reaction was started by addition of the CES1 to the final concentration 0.01 μg/mL. 100 μL aliquots were taken after 0.5 min, 3 hrs and 21 hrs of the incubation and the reaction was stopped by mixing with 100 μl of the ice-cold methanol prior to HPLC analysis.
Samples were analyzed by HPLC using 5 μC-18, 4.6×250 mm Phenomenex® Columbus column (Phenomenex USA, Calif.). The mobile phase consisted of buffer A (25 mM potassium phosphate with 5 mM tetrabutylammonium dihydrogen phosphate pH 6.3) and buffer B (100% methanol).

A short description of data set [3]: Liver triphosphate and plasma prodrug and nucleoside PK after single oral dose (Example 5). Format: in vivo, Cynomolgus monkeys. As to conditions: oral 10 mg/kg. The protocol: For each compound, a single oral dose at 10 mg/kg in PEG 200 (dose volume 3 mL/kg) was administered to cynomolgus monkeys. Untreated animals were used for the collection of control liver. Plasma samples were collected at 0.5, 1, 2, 4, 6, 8, 12 and 24 hours for compound 37, diastereomer 2.
Plasma samples were analyzed for the prodrug and nucleoside by LC-MS/MS. For protein precipitation and extraction, each plasma sample (50 μL) was treated with 500 μL of 0.2% formic acid in acetonitrile and 20 μL of an appropriate internal standard working solution. After vortexing and centrifugation, 500 μL of the sample extracts were transferred to a new plate, dried under N2 at ˜28° C. and reconstituted with 75 μL of 0.2% FA in water. The extracts were chromatographed on an Aquasil C18 column using a gradient system of 0.2% formic acid in water and acetonitrile. The analytes were detected and quantified by tandem mass spectrometry in positive ion mode on an MDS Sciex API4000 equipped with a Turbo Ionspray® interface.
Liver samples were analyzed for the relevant nucleoside triphosphate by LC-MS/MS. […] Appropriate internal standard solution was added to the homogenate followed by neutralization with 20% ammonium hydroxide solution and addition of 500 μL 1% formic acid. The tissue samples were extracted by weak anion exchange solid phase extraction (SPE). Post extraction, the eluates were evaporated under nitrogen, followed by reconstitution before injection onto the LC-MS/MS system.

For `CCCCOC(=O)[C@@H](C)NP(=O)(OC[C@H]1O[C@@H](n2ccc(=O)[nH]c2=O)[C@](C)(Cl)[C@@H]1O)Oc1ccccc1` (single isomer, unassigned; diastereomer 2) [202i Diastereomer 2], the CC50 in the data set on Zluc cells was > 50 µM. The “Ms Plasma nucleoside AUC” value in data set [1] is 0.00612 M·s. Also, the half-maximal effective concentration (EC50) in the data set with HCV genotype 1b replicon is 0.25 to 1 µM.
For `C[C@@H](NP(=O)(OC[C@H]1O[C@@H](n2ccc(=O)[nH]c2=O)[C@](C)(Cl)[C@@H]1O)Oc1ccccc1)C(=O)OCc1ccccc1` (single isomer, unassigned; diastereomer 2) [205i Diastereomer 2], in that order: > 50 µM, 0.00612 M·s and 0.25 to 1 µM.
As for `CCCCOC(=O)[C@@H](C)NP(=O)(OC[C@H]1O[C@@H](n2ccc(=O)[nH]c2=O)[C@](C)(Cl)[C@@H]1O)Oc1ccccc1` (single isomer, unassigned) [202i Diastereomer 1], in the data set on Zluc cells, the CC50 was > 50 µM.
With `CC(C)OC(=O)[C@H](C)N[P@](=O)(OC[C@H]1O[C@@H](n2ccc(=O)[nH]c2=O)[C@](C)(F)[C@@H]1O)Oc1ccccc1` (single isomer, unassigned) [GS-7977, reference compound], in the data set with Huh-7 cells, the “Huh-7 AUC0-72” value turned out to be 63555 pmol*hr/10^6cells. Besides, the “Hydrolysis by CatA” value at cathepsin A (CatA) is on record as “hydrolyzed”. Also, the CatA hydrolysis on cathepsin A (CatA) (@ 18 h, 100 μM compound, 37° C., pH 6.0) is reported as 100% @. In addition, on cathepsin A (CatA) (GS-7977 (SP) versus RP diastereoisomer), the “CatA cleavage efficiency relative to the RP diastereoisomer” value was found to be 10 times. Further, in data set [2], the “Hydrolysis by CES1” value is recorded as “hydrolyzed”. Besides, the figures for the CES1 hydrolysis in data set [2] (3 h) and in data set [2] (21 h) were 12%/3 h; and 15%/21 h, respectively.
Turning to `CC(C)OP1(=O)OC[C@H]2O[C@@H](n3ccc(=O)[nH]c3=O)[C@](C)(Cl)[C@@H]2O1` (single isomer, unassigned; diastereomer 2) [37 Diastereomer 2], in data set [3] (6 hours post dose, normalized to 1 μmol/kg dose), the “Nucleoside triphosphate in Liver C6” value was 1500 pmol/g. In addition, in data set [3], the “Nucleoside triphosphate in Liver Tmax” value was found to be 12 h, the “Plasma nucleoside Tmax” value was determined as 4 h and the “Plasma prodrug Tmax” value stood at 4 h. Further, in data set [3] (normalized to 1 μmol/kg dose), the “Nucleoside triphosphate in Liver AUC0-24” value stood at 29000 pmol·h/g, the “Nucleoside triphosphate in Liver Cmax” value was 1700 pmol/g, the “Plasma nucleoside AUC0-24” value was 0.65 µM·h and the “Plasma prodrug AUC0-24” value came to 4 µM·h. In addition, the Cmax in data set [3] (normalized to 1 μmol/kg dose, read-out: Plasma nucleoside Cmax) was 51 nM. Besides, in data set [3] (normalized to 1 μmol/kg dose, read-out: Plasma prodrug Cmax), the highest concentration (Cmax) is 840 nM.
As for `C[C@@H](NP(=O)(OC[C@H]1O[C@@H](n2ccc(=O)[nH]c2=O)[C@](C)(Cl)[C@@H]1O)Oc1ccccc1)C(=O)OCc1ccccc1` (single isomer, unassigned) [205i Diastereomer 1], the cytotoxic concentration (CC50) in the data set with Zluc cells was > 50 µM.

The record behind these values is US10717758B2, “D-amino acid compounds for liver disease” (priority 2012, dated 2020).
